The values below come from patent EP1118615A1, “NOVEL SALTS OF PYRIDOPYRAZINE COMPOUND AND CRYSTALS THEREOF” (FUJISAWA PHARMACEUTICAL CO., LTD., priority 1998, dated 2000).

One series is described as follows: Stability in solid state. It is filed as physicochemical. More on the design: Water content: unit not given here. An excerpt: The crystallinity of hydrochloride was decreased when it was mixed with ethanol.
In the study on polymorphism of compound (I), six kinds of polymorphs (A01, A09, A16, A20, A30 and A43 crystals) were found. For each of those polymorphs, hygroscopicity, stability in solid state, solubility and changes in crystallinity on compounding with various solvents were studied. However, the A30 crystal was not studied since it contains ethanol.
(2) Stability in solid state

The subject of series [1] is P. acnes/LPS-induced mouse hepatitis model. Description: (B4) P. acnes/LPS-induced mouse hepatitis model. It is filed as in vivo, ICR mice. The settings on record: oral, 9 hours after administration of the drug. How it is done:
(B4) P. acnes/LPS-induced mouse hepatitis model
[Method] Propionibacterium acnes (P. acnes) killed by heat treatment was lyophilized and used in the experiment. To 7-week-old male ICR mice, either saline or P. acnes, 0.6 mg/0.2 ml/mouse, was administered intravenously. After 7 days, the drug or the solvent vehicle was administered orally in predetermined doses to the animals deprived of food for 20 hours. At. 9 hours after administration of the drug, the blood was drawn and the liver-derived enzymes (ALT and AST) in plasma were assayed.

The subject of series [2] is Guinea-pig model of delayed asthma. Kind of series: (B6) Guinea-pig model of delayed asthma. It is filed as in vivo, Hartley guinea pigs. The settings on record: oral 1 hour before exposure to the antigen; 4~8 hours after exposure. How it is done:
(B6) Guinea-pig model of delayed asthma
[Method] Male Hartley guinea pigs were sensitized intraperitoneally with ovalbumin/Freund's complete adjuvant. On day 23 after immunization, the animals were caused to inhale a mist of ovalbumin solution from a sonic nebulizer for 3 minutes to elicit an asthmatic response. The drug was administered orally 1 hour before exposure to the antigen. The special airway resistance (sRaw) after exposure to the antigen was measured and the case in which the sRaw value had increased two-fold or more from the pre-exposure baseline in 4~8 hours was regarded as a case of delayed asthma.

Series [3] concerns Arachidonic acid-induced ear edema model. Description: (B7) Atopy, Method 1: arachidonic acid-induced ear edema model. It is filed as in vivo, Balb/c mice. The settings on record: oral 30 minutes before arachidonic acid; auricle thickness after 1 hour. The protocol:
[Method 1] Arachidonic acid-induced ear edema model:
To the left auricle of Balb/c mice, 2 mg/ear of arachidonic acid was applied to induce a skin inflammation. After 1 hour, the thickness of the auricle was measured with a peacock dial thickness gage and used as an indicator of skin inflammation. The drug was administered orally 30 minutes before application of arachidonic acid.

As to `CS(=O)(=O)O.O.O.O=C(Nc1cccc(-n2c(=O)c(Cc3cccnc3)nc3cccnc32)c1)c1cc(Cl)cc(Cl)c1` [Example 2, 4-(3-(3,5-dichlorobenzoylamino)phenyl)-2-(3-pyridyl)methyl-3-oxo-3,4-dihydropyrido[2,3-b]pyrazine methanesulfonate dihydrate], in the series “Stability in solid state” (70°C, 75% RH, 9 days), the “% Residue” value is 101.6%, the Appearance result is reported as “Pale yellowish white crystalline powder”, the Crystal form entry was “Unchanged” and the Water content stood at 5.09. Further, in “Stability in solid state” (70°C, 9 days), the “% Residue” value worked out at 100.3%, the Appearance result was “Pale yellowish white crystalline powder”, the Crystal form entry is “Unchanged” and the Water content was 1.68. Besides, in “Stability in solid state” (Initial), the “% Residue” value was 100.0%, the Appearance entry was “Pale yellowish white white crystalline powder” and the Water content came to 1.75. Further, in “Stability in solid state” (heat and humidity, summary of Table 3), the “change in crystal form” value is given as “no change”. Moreover, the “chemical stability against heat and humidity” value in “Stability in solid state” (summary of Table 3) is “chemically stable”. In addition, in series [1], the “elevation of blood ALT” value is “significantly inhibited” and the “elevation of blood AST” value was “significantly inhibited”. Further, the delayed asthmatic response result in series [2] is given as “inhibited”. Besides, the ear edema result in series [3] is recorded as “significantly inhibited”.
